Results on six molecules are retold here after patent publication US8486996B2, “Aroylfuranes and aroylthiophenes” (Basilea Pharmaceutica AG, priority 2006, dated 2013).

Read-outs that look alike come from different tables or passages of the source.

A short description of data set [1]: Hoechst 33342 nuclear staining (48 h read-out). It counts as cell-based. The essentials: (§1)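 Adherent cells pre-spread 24 h before dosing, suspension cells dosed at seeding; compounds at 0.001 μM-10 μM final, 48 h at culture conditions. Hoechst 33342 (2-5 μg/ml) added for 30 min, then fluorescence microscopy scoring of apoptotic nuclear fraction and apoptosis-specific morphology, reported as scores A-D.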

For data set [2], the system named is tumor cells. Description: Hoechst 33342 nuclear staining (48 h read-out). Type of data set: cell-based. In a few lines:
as §1

Data set [3] in a line: MTS proliferation assay (72 h read-out). Type of data set: cell-based. Conditions: Homo sapiens, MRC5 cells. In a few lines:
(§2)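 Viability was read by MTS absorbance at 492 nm after 3 h with reagent. Before that, cells plated a day earlier at 1.5×10^3–10^4 per well had been incubated with test compound at final concentrations of 0.001–10 μM for 72 h; activity is given as category scores A–D.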
In general terms: Formazan colour is commonly taken as a measure of viable cells.

For data set [4], the system named is tumor cells. Nature of the data set: MTS proliferation assay (72 h read-out). Type of data set: cell-based. The essentials: as §2
The nature of data set [5]: Mitochondrial membrane potential, JC-1 (read-out 48 h). Type of data set: cell-based. Conditions: PBL, JC-1, 48 h. In a few lines:
(§3)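 Tumor cells were treated with test compounds (adherent cells after 24 h of attachment, suspension cells immediately), medium holding up to 5% DMSO. After 48 h, JC-1 (2-5 μg/ml in added medium) was applied for 30 min. Fluorescence microscopy (FITC/TRITC filters) scored the fraction of cells with dissipated mitochondrial membrane potential as categories A-D.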

Data set [6] deals with tumor cells. The description is as above. Type of data set: cell-based. The settings on record: JC-1, 48 h. In a few lines:
as §3

[7] abbreviates: Homo sapiens, MRC5 cells, read-out: Hoechst 33342 nuclear staining EC50, MRC5.
Setting [8] is: PBL, read-out: Hoechst 33342 nuclear staining EC50, PBL.
[9] abbreviates: Homo sapiens, HeLa cells, read-out: Hoechst 33342 nuclear staining EC50, HeLa.
Where [10] appears, read: Homo sapiens, Jurkat cells, read-out: Hoechst 33342 nuclear staining EC50, Jurkat.
[11] abbreviates: Jily cells, read-out: Hoechst 33342 nuclear staining EC50, Jily.
[12] abbreviates: Homo sapiens, HT-1080, HT1080 cells, read-out: MTS proliferation assay IC50, HT1080.
Where [13] appears, read: Homo sapiens, HeLa cells, read-out: MTS proliferation assay IC50, HeLa.
[14] abbreviates: Homo sapiens, Jurkat cells, read-out: MTS proliferation assay IC50, Jurkat.
The mark [15] stands for this setting: Jily cells, read-out: MTS proliferation assay IC50, Jily.
[16] abbreviates: Homo sapiens, HeLa cells, read-out: Mitochondrial membrane potential (read-out 48 h) HeLa.
[17] abbreviates: Homo sapiens, Jurkat cells, read-out: Mitochondrial membrane potential (read-out 48 h) Jurkat.
The mark [18] stands for this setting: Homo sapiens, MCF7 cells, read-out: Mitochondrial membrane potential (read-out 48 h) MCF7.
[19] abbreviates: Jily cells, read-out: Mitochondrial membrane potential (read-out 48 h) Jily.

By melting point is commonly meant the temperature of the solid-liquid transition. Consider `CCOc1ccc(F)cc1C(=O)c1oc2cnc(C)cc2c1N` [Example 31], for which the melting point was determined as 162 °C. Moreover, the EC50 in data set [1] (setting [7]) lay in the range of 0.1 to 1 µM. In data set [1] (setting [8]), the EC50 is more than 1 µM. In addition, the EC50 in the data set on tumor cells [2] (setting [9]) lay within 0.01 to 0.1 µM. In the data set with tumor cells [2] (setting [10]), the EC50 was in the range of 0.01 to 0.1 µM. Besides, the EC50 in the data set with tumor cells [2] (setting [11]) was 0.01 to 0.1 µM. For the same molecule, in data set [3], the IC50 lay in the range of 0.01 to 0.1 µM. Moreover, the IC50 with tumor cells [4] (setting [12]) lay within 0.01 to 0.1 µM. Moreover, the IC50 with tumor cells [4] (setting [13]) lay within 0.01 to 0.1 µM. Also, the IC50 with tumor cells [4] (setting [14]) was 0.01 to 0.1 µM. Also, the IC50 with tumor cells [4] (setting [15]) was 0.01 to 0.1 µM. Also, the EC50 in data set [5] was more than 1 µM. In the data set with tumor cells [6] (setting [16]), the EC50 is 0.1 to 1 µM. Also, the EC50 with tumor cells [6] (setting [17]) is 0.01 to 0.1 µM. Besides, in the data set with tumor cells [6] (setting [18]), the EC50 was more than 1 µM. Besides, the EC50 in the data set with tumor cells [6] (setting [19]) was 0.01 to 0.1 µM.

Molecule `CCOc1ccccc1C(=O)c1sc2ncccc2c1N` [Example 114] showed a melting point of 138 to 142 °C. Further, in data set [1] (setting [7]), the EC50 is more than 1 µM. Moreover, in data set [1] (setting [8]), the EC50 is more than 1 µM. In the data set on tumor cells [2] (setting [9]), the EC50 is more than 1 µM. In addition, in the data set on tumor cells [2] (setting [10]), the EC50 is more than 1 µM. Moreover, in the data set with tumor cells [2] (setting [11]), the EC50 was more than 1 µM. The IC50 in data set [3] was more than 1 µM. Besides, the IC50 with tumor cells [4] (setting [12]) was more than 1 µM. For the same molecule, the IC50 in the data set with tumor cells [4] (setting [13]) is more than 1 µM. Also, in the data set with tumor cells [4] (setting [14]), the IC50 is more than 1 µM. Moreover, the IC50 in the data set with tumor cells [4] (setting [15]) was more than 1 µM. Moreover, the EC50 in data set [5] was more than 1 µM. The EC50 in the data set on tumor cells [6] (setting [16]) is more than 1 µM. Moreover, in the data set on tumor cells [6] (setting [17]), the EC50 was more than 1 µM. Besides, the EC50 in the data set with tumor cells [6] (setting [18]) is more than 1 µM. The EC50 with tumor cells [6] (setting [19]) was more than 1 µM.

Consider `CCOc1ccc(F)cc1C(=O)c1sc2ncc([N+](=O)[O-])cc2c1N` [Example 115], for which the melting point came out at 205 °C. For the same molecule, in data set [1] (setting [7]), the EC50 was more than 1 µM. Further, the EC50 in data set [1] (setting [8]) was more than 1 µM. For the same molecule, the EC50 in the data set on tumor cells [2] (setting [9]) is more than 1 µM. In addition, the EC50 in the data set with tumor cells [2] (setting [10]) is more than 1 µM. In the data set with tumor cells [2] (setting [11]), the EC50 is more than 1 µM. The IC50 in data set [3] was more than 1 µM. In the data set on tumor cells [4] (setting [12]), the IC50 was more than 1 µM. In addition, the IC50 in the data set on tumor cells [4] (setting [13]) is more than 1 µM. Also, the IC50 in the data set with tumor cells [4] (setting [14]) is more than 1 µM. Further, in the data set with tumor cells [4] (setting [15]), the IC50 was more than 1 µM. In addition, the EC50 in data set [5] was more than 1 µM. Moreover, the EC50 in the data set on tumor cells [6] (setting [16]) is more than 1 µM. Further, the EC50 in the data set with tumor cells [6] (setting [17]) is more than 1 µM. In addition, the EC50 in the data set on tumor cells [6] (setting [18]) was more than 1 µM. For the same molecule, in the data set on tumor cells [6] (setting [19]), the EC50 is more than 1 µM.

The molecule `CCOc1ccc(F)cc1C(=O)c1sc2ncc(N)cc2c1N` [Example 116] came in with a melting point of 80 °C. The EC50 in data set [1] (setting [7]) lay in the range of 0.01 to 0.1 µM. Also, the EC50 in data set [1] (setting [8]) is more than 1 µM. Also, the EC50 with tumor cells [2] (setting [9]) fell in the range of 0.01 to 0.1 µM. The EC50 in the data set with tumor cells [2] (setting [10]) is 0.01 to 0.1 µM. Also, in the data set with tumor cells [2] (setting [11]), the EC50 was 0.01 to 0.1 µM. In addition, in data set [3], the IC50 lay within 0.1 to 1 µM. In the data set with tumor cells [4] (setting [12]), the IC50 fell in the range of 0.1 to 1 µM. The IC50 in the data set with tumor cells [4] (setting [13]) is 0.1 to 1 µM. Moreover, the IC50 in the data set with tumor cells [4] (setting [14]) fell in the range of 0.01 to 0.1 µM. Moreover, the IC50 with tumor cells [4] (setting [15]) was 0.01 to 0.1 µM. Further, the EC50 in data set [5] is more than 1 µM. Besides, the EC50 in the data set on tumor cells [6] (setting [16]) lay in the range of 0.1 to 1 µM. Further, the EC50 with tumor cells [6] (setting [17]) lay within 0.01 to 0.1 µM. For the same molecule, the EC50 with tumor cells [6] (setting [18]) was more than 1 µM. Further, in the data set on tumor cells [6] (setting [19]), the EC50 is 0.01 to 0.1 µM.

Take `CCOc1ccccc1C(=O)c1sc2ncc(N)cc2c1N` [Example 117]: the melting point stood at 116 °C. In data set [1] (setting [7]), the EC50 is more than 1 µM. In addition, the EC50 in data set [1] (setting [8]) is more than 1 µM. Moreover, the EC50 in the data set on tumor cells [2] (setting [9]) is more than 1 µM. For the same molecule, in the data set on tumor cells [2] (setting [10]), the EC50 was more than 1 µM. In addition, the EC50 in the data set on tumor cells [2] (setting [11]) is more than 1 µM. Also, the IC50 in data set [3] was more than 1 µM. Further, in the data set with tumor cells [4] (setting [12]), the IC50 is more than 1 µM. The IC50 in the data set on tumor cells [4] (setting [13]) is more than 1 µM. Also, in the data set on tumor cells [4] (setting [14]), the IC50 is more than 1 µM. Also, the IC50 with tumor cells [4] (setting [15]) is more than 1 µM. In addition, the EC50 in data set [5] is more than 1 µM. In addition, in the data set on tumor cells [6] (setting [16]), the EC50 was more than 1 µM. Moreover, the EC50 with tumor cells [6] (setting [17]) is more than 1 µM. For the same molecule, the EC50 in the data set on tumor cells [6] (setting [18]) was more than 1 µM. Moreover, the EC50 in the data set on tumor cells [6] (setting [19]) was more than 1 µM.

Regarding `CCOc1ccc(C)cc1C(=O)COc1ccc(Cl)cc1C#N` [Example 144], the melting point lay in the range of 144 to 146 °C. Besides, the EC50 in data set [1] (setting [7]) fell in the range of 0.1 to 1 µM. Moreover, in data set [1] (setting [8]), the EC50 is more than 1 µM. Moreover, the EC50 in the data set on tumor cells [2] (setting [9]) lay in the range of 0.1 to 1 µM. Further, in the data set with tumor cells [2] (setting [10]), the EC50 was 0.01 to 0.1 µM. In addition, the EC50 with tumor cells [2] (setting [11]) was 0.01 to 0.1 µM. In addition, the IC50 in data set [3] lay within 0.1 to 1 µM. Further, the IC50 in the data set on tumor cells [4] (setting [12]) fell in the range of 0.1 to 1 µM. In addition, in the data set on tumor cells [4] (setting [13]), the IC50 lay in the range of 0.1 to 1 µM. Also, the IC50 with tumor cells [4] (setting [14]) was 0.01 to 0.1 µM. Further, the IC50 in the data set with tumor cells [4] (setting [15]) was 0.01 to 0.1 µM. Besides, the EC50 in data set [5] was more than 1 µM. Further, the EC50 with tumor cells [6] (setting [16]) was 0.1 to 1 µM. Besides, in the data set with tumor cells [6] (setting [17]), the EC50 lay in the range of 0.01 to 0.1 µM. For the same molecule, the EC50 with tumor cells [6] (setting [18]) lay in the range of 0.1 to 1 µM.
